Assay results reported in patent US20090088482A1, “Compositions and Methods For Treating Heart Failure” (The Trustees Of Columbia University In The City New York, priority 2003, published 2009).

Tested on: ryanodine receptor (RyR)
Experiment: Western blot of calcium-handling protein expression: RyR (Example 5)
Assay type: in vivo, Sprague-Dawley rats
Conditions: FIG. 6; not different from Sham
Experimental: Five rat hearts from each group (HF, Clen, Meto, Clen+Meto, and Sham) were randomly selected and used for analysis of calcium-handling protein expression levels. Lysates of LV tissue were obtained with the use of a homogenizer (Brinkmann Instruments, Westbury, N.Y.). Approximately 150 mg of heart tissue was placed in a seven-fold volume of lysis buffer (20 mM/L Na-HEPES, 4 mM/L EGTA, 1 mM/L DTT, pH 7.4) in the presence of proteinase inhibitors (0.1 mM/L leupeptin and 0.3 mM/L PMSF). The protein concentration was determined using a protein assay kit (Bio-Rad Laboratories, Hercules, Calif.). Samples (50 μg) were denatured at 95° C. and size-fractionated using SDS-polyacrylamide gel electrophoresis (PAGE) under reducing conditions. SDS-PAGE was performed using 7.5% separating and 5% stacking gels for SERCA2a and 5% separating and 4% stacking gels for RyR. Electrophoresis was performed in a Miniprotean II cell (Bio-Rad Laboratories, Hercules, Calif.) followed by transfer of proteins (using 34 V overnight at 4° C.) onto nitrocellulose in a mini trans-blot transfer cell (Bio-Rad Laboratories, Hercules, Calif.) filled with transfer buffer (25 m/L Tris-HCl, pH 8.3, 192 mM/L glycine and 20% methanol). […]
Optical densities of protein level signals were quantified with the use of a laser scanning densitometer (Molecular Dynamics, Palo Alto, Calif.) in a blinded manner. […]

`CC(C)(C)NCC(O)c1cc(Cl)c(N)c(Cl)c1` (stereo not shown) [Clen, clenbuterol] was tested, and the “RyR protein expression level relative to tubulin, versus HF group” value was “significantly improved”.
